Reference: paper PMC2920549, “Bromopyrrole Alkaloids as Lead Compounds against Protozoan Parasites” (Marine Drugs, 2010)
Values after ≈ are worked out from the molar mass of the structure shown. Values joined by “and” are separate entries in the source; they are usually repeats but may differ in a detail not shown here. Identical values can stand only once. Like-named read-outs stand apart in the source and are kept apart here. Marks after values point to notes of the source that are not given here.

How the values were obtained:
[1] = test system: L. donovani strain MHOM/ET/67/L82 axenic amastigotes; assay: Activity against Leishmania donovani (axenic amastigotes, resazurin); assay type: cell-based; details: for Selectivity index (CC50 L6 / IC50 parasite) for L. donovani: CC50 L6 cells divided by IC50 L. donovani; for IC50: Leishmania donovani, read-out: IC50 L. donovani; for IC50 / IC50 L. donovani: 72 h
Procedure: (§1) The toxicity on mammalian cells was assessed against L6 cells, a primary cell line derived from rat skeletal myoblasts.
Amastigotes of L. donovani strain MHOM/ET/67/L82 were grown in axenic culture at 37 °C in SM medium at pH 5.4 supplemented with 10% heat-inactivated fetal bovine serum under an atmosphere of 5% CO2 in air. One hundred μL of culture medium with 10^5 amastigotes from axenic culture with or without a serial drug dilution were seeded in 96-well microtiter plates. […] Data were analyzed using the software Softmax Pro. Decrease of fluorescence (=inhibition) was expressed as percentage of the fluorescence of control cultures and plotted against the drug concentrations. From the sigmoidal inhibition curves the IC50 values were calculated. […] Miltefosine was used as a reference drug.

[2] = Cytotoxicity against L6-cells (resazurin); assay type: cell-based, rat; details: rat
Procedure: as §1
(§2) Assays were performed in 96-well microtiter plates, each well containing 100 μL of RPMI 1640 medium supplemented with 1% L-glutamine (200 mM) and 10% fetal bovine serum, and 4 × 10^4 L-6 cells (a primary cell line derived from rat skeletal myoblasts). Serial drug dilutions of seven 3-fold dilution steps covering a range from 90 to 0.123 μg/mL were prepared. After 72 h of incubation the plates were inspected under an inverted microscope to assure growth of the controls and sterile conditions. 10 μl of a resazurin solution (12.5 mg resazurin dissolved in 100 mL distilled water) was then added to each well and the plates incubated for another 2 h. Then the plates were read with a Spectramax Gemini XS microplate fluorometer using an excitation wavelength of 536 nm and an emission wavelength of 588 nm. Data were analyzed using the microplate reader software Softmax Pro. Each CC50 value obtained is the mean of at least two separate experiments performed in duplicate. Podophyllotoxin was the standard drug used.

[3] = test system: T. b. rhodesiense STIB 900 bloodstream forms; assay: Activity against Trypanosoma brucei rhodesiense (resazurin assay); assay type: cell-based; details: for Selectivity index (CC50 L6 / IC50 parasite) for T. brucei rhodesiense: CC50 L6 cells divided by IC50 T. b. rhodesiense; for IC50: Trypanosoma brucei, read-out: IC50 T. b. rhodesiense; for IC50 / IC50 T. b. rhodesiense: 72 h
Procedure: as §1
STIB 900 strain of T. b. rhodesiense and the standard drug melarsoprol were used for the assay. […] Data were analyzed using the microplate reader software Softmax Pro (Molecular Devices Cooperation, Sunnyvale, CA, USA).

[4] = test system: T. cruzi Tulahuen strain C2C4 intracellular amastigotes in L6 rat skeletal myoblasts; assay: Activity against Trypanosoma cruzi (beta-galactosidase/CPRG assay in L6 cells); assay type: cell-based; details: for IC50 T. cruzi: 96 h; for IC50: Trypanosoma cruzi, TULAHUEN, L6, 96 h
Procedure: Then the substrate CPRG/Nonidet (50 μl) was added to all wells. A color reaction developed within 2–6 h and could be read photometrically at 540 nm. Data were transferred into the graphic programme Softmax Pro (Molecular Devices), which calculated IC50 values. […] Benznidazole was the standard drug used.

[5] = test system: P. falciparum K1 strain erythrocytic stages; assay: Activity against Plasmodium falciparum ([3H]-hypoxanthine incorporation); assay type: cell-based; details: for IC50: Plasmodium falciparum; for IC50 P. falciparum: K1 strain
Procedure: as §1
The radioactivity was counted using a Betaplate^TM liquid scintillation counter (Wallac, Zurich, Switzerland). […] IC50 values were calculated from graphically plotted dose-response curves.

[6] = target: T1, PfFabZ (β-hydroxyacyl-ACP dehydratase) (Plasmodium falciparum, UniProt Q965D7); assay: biochemical; details: read-out: IC50 PfFabZ (converted)
T1 construct: made in house
T1 sequence (Q965D7 19-230): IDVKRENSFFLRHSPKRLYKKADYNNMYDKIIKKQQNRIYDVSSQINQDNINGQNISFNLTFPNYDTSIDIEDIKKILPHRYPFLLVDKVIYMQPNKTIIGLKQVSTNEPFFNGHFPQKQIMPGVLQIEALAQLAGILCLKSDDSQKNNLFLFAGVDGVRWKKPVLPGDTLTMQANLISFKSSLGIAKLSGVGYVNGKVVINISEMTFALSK
Procedure: Expression and purification of the PfFab enzymes as well as the assays were performed as described [29]. […] Measurements were carried out in Nundron Surface sterile 96-well plates, using 20 mM Hepes and 150 mM NaCl at pH 7.4. Compounds were dissolved in DMSO (maximum final concentration 1%). A dilution series of 50 μg/mL to 0.0005 μg/mL of dissolved compounds was measured. For PfFabI, 400 μM NADH (cofactor, Sigma) was added to 2 μg enzyme and reaction started by addition of 300 μM crotonyl-CoA (substrate, Sigma). The change of absorbance of the mixture was recorded spectrophotometrically at 340 nm for 40 minutes. Triclosan was used as a positive control and was analyzed the same way. For PfFabG 400 μM NADPH (cofactor, Fluka) was added to 0.5 μg enzyme and reaction started by addition of 300 μM acetoacetyl-CoA (substrate, Sigma). The change of absorbance of the mixture was recorded spectrophotometrically at 340 nm for 20 minutes. (-)-Epigallocatechin gallate (Sigma) was used as a positive control and was analyzed the same way. For PfFabZ, 600 μM crotonoyl-CoA (substrate, Sigma) was added to 0.5 μg enzyme. The change of absorbance of the mixture was recorded spectrophotometrically at 260 nm for 20 minutes. (−)-Epigallocatechin gallate was used as a positive control. IC50 values were estimated from graphically plotted dose-response curves. […]

[7] = test system: L6 cells; assay: Cytotoxicity against L6-cells (resazurin); assay type: cell-based, rat; details: 72 h
Procedure: as §1, §2

[8] = K1, K1 strain, erythrocytic stage, read-out: IC50 P. falciparum
[9] = 72 h, read-out: CC50 Cytotoxicity L6 cells

O=C(O)CC1CNC(=O)c2cc(Br)c(Br)n21 (centres unmarked) [Compound 8, longamide B]
Selectivity index (CC50 L6 / IC50 parasite) for L. donovani [1]: 2.6
IC50 ([1]; axenic amastigotes): 3.85 mg/L (≈ 10.9 µM)
CC50 at 72 h [2]: 9.94 mg/L (≈ 28.2 µM)
Selectivity index (CC50 L6 / IC50 parasite) for T. brucei rhodesiense [3]: 6.5
IC50 ([3]; STIB 900 bloodstream forms): 1.53 mg/L (≈ 4.35 µM)
IC50 T. cruzi [4]: 33.03 mg/L (≈ 93.8 µM)
IC50 [4]: > 33 mg/L
IC50 [5, 8]: 7.46 mg/L (≈ 21.2 µM)

O=C1NC[C@@H](O)n2c1cc(Br)c2Br [Compound 9, longamide A]
IC50 ([1]; axenic amastigotes): > 90 mg/L
CC50 at 72 h [2]: > 90 mg/L
IC50 ([3]; STIB 900 bloodstream forms): > 90 mg/L
IC50 [4]: > 90 mg/L
IC50 [5, 8]: > 20 mg/L

Nc1nc([C@H]2[C@H](CNC(=O)c3cc(Br)c[nH]3)[C@@H](CNC(=O)c3cc(Br)c[nH]3)[C@@H]2c2c[nH]c(N)n2)c[nH]1 [Compound 10, sceptrin]
IC50 ([1]; axenic amastigotes): 51.6 mg/L (≈ 83.2 µM)
CC50 at 72 h [2]: > 90 mg/L
IC50 ([3]; STIB 900 bloodstream forms): 9.71 mg/L (≈ 15.7 µM)
IC50 T. cruzi [4]: 60.08 mg/L (≈ 96.9 µM)
IC50 [4]: > 33 mg/L
IC50 [5, 8]: 11.1 mg/L (≈ 17.9 µM)

NCC1C2CN3C(=O)c4cc(Br)c(Br)n4C4N=C(N)NC43C2C2(N=C(N)NC2O)C1Cl (centres unmarked) [Compound 11, dibromopalau’amine]
Selectivity index (CC50 L6 / IC50 parasite) for L. donovani [1]: 3–4
IC50 [1]: 1.09 mg/L (≈ 1.89 µM)
CC50 at 72 h [2, 9]: 4.46 mg/L (≈ 7.72 µM)
Selectivity index (CC50 L6 / IC50 parasite) for T. brucei rhodesiense [3]: about 10
IC50 ([3]; STIB 900 bloodstream forms): 0.46 mg/L (≈ 0.796 µM)
Selectivity index (CC50 L6 / IC50 parasite) for P. falciparum ([5]; CC50 L6 cells divided by IC50 P. falciparum): 3–4
IC50 ([5]; K1, read-out: IC50 P. falciparum): 1.48 mg/L (≈ 2.56 µM)

N=C(N)NCCCC[C@H](NC(=O)c1cc(Br)c[nH]1)C(=O)O [Compound 12, bromopyrrolohomoarginin]
IC50 ([1]; axenic amastigotes): 34.5 mg/L (≈ 95.7 µM)
IC50 [6]: 0.777 µM
CC50 at 72 h [2]: 62.3 mg/L (≈ 173 µM)
IC50 ([3]; STIB 900 bloodstream forms): 67.1 mg/L (≈ 186 µM)
IC50 [4]: > 90 mg/L
IC50 [5, 8]: > 20 mg/L

C[C@]1(COC(=O)c2cc(Br)c[nH]2)C[C@@H](C(=O)O)N=CN1 [Compound 13, manzacidin A]
IC50 ([1]; axenic amastigotes): 75.8 mg/L (≈ 220 µM)
CC50 at 72 h [2]: > 90 mg/L
IC50 ([3]; STIB 900 bloodstream forms): 73.8 mg/L (≈ 214 µM)
IC50 [4]: > 90 mg/L
IC50 [5, 8]: > 20 mg/L

Nc1nc(N)nc(Nc2ccc([As]3SCC(CO)S3)cc2)n1 (centres unmarked) [Melarsoprol, reference compound]
IC50 [3]: 0.004 mg/L

CCCCCCCCCCCCCCCCOP(=O)([O-])OCC[N+](C)(C)C [Miltefosine, reference compound]
IC50 ([1]; axenic amastigotes): 0.21 mg/L (≈ 0.515 µM)
IC50 L. donovani ([1]; axenic amastigotes): 0.206 ^c μg/mL

COc1cc([C@@H]2c3cc4c(cc3[C@H](O)[C@H]3COC(=O)[C@H]23)OCO4)cc(OC)c1OC [Podophyllotoxin, reference compound]
CC50 at 72 h [2, 9]: 0.005 mg/L (≈ 0.0121 µM)

agelongine [Compound 14]
IC50 L. donovani ([1]; axenic amastigotes): 43.22 µg/mL
CC50 Cytotoxicity L6 cells [7]: >90 mg/L
IC50 T. b. rhodesiense ([3]; STIB 900 bloodstream forms): 49.96 mg/L
IC50 T. cruzi [4]: >90 mg/L
IC50 P. falciparum ([5]; erythrocytic stage): 11.18 mg/L

spongiacidin B [Compound 6]
IC50 L. donovani ([1]; axenic amastigotes): 41.59 µg/mL
CC50 Cytotoxicity L6 cells [7]: 35.6 mg/L and 35.61 mg/L
IC50 T. b. rhodesiense ([3]; STIB 900 bloodstream forms): 13.58 mg/L and 13.48 mg/L
IC50 P. falciparum ([5]; erythrocytic stage): 1.34 mg/L and 1.09 mg/L
